Common to all, as to assay type: cell-based
Assay [1] relates to hyaluronic acid levels in adult human dermal fibroblast (aHDF) conditioned media. Nature of the assay: Hyaluronic acid in fibroblast-conditioned medium (HA-ELISA). The settings on record: 96 h. The source says: Hyaluronic acid (hyaluronan, HA), a naturally occurring carbohydrate polymer is a key component of connective, epithelial and neural tissues. HA participates in hydrodynamics, movement and proliferation of cells. This test was designed to determine whether a sample of palmitylated and non-palmitylated MNTF hexapeptide has an effect on hyaluronic acid levels in the adult human dermal fibroblast (aHDF) conditioned media.
Adult HDF (facial, passage 2, Cell Applications, San Diego, Calif. cat.#106-05A lot#1392) were plated in high glucose phosphate-free DMEM supplemented with 5% cosmic serum from Hyclone, Utah) at 6,000 cells per well and test materials were added the following day. Test materials were: Pal-Hexapeptide (palmitylated SEQ ID NO:2 as a lyophilized powder labeled APC 341055, lot V08150A1, received from DermaCare Neuroscience Institute), type I sterile water (negative control) and basic fibroblast growth factor (bFGF, positive control). Pal-Hexapeptide was dissolved in water at 20 mg/ml. Final concentrations tested were: 400, 200, 100, 50 and 25 ug/ml for DNP and 5 ng/ml for bFGF (plate 507). After 96 h, cell culture conditioned media were collected and 100 ul aliquotes were used for the HA assay. HA assay was performed using Hyaluronan Enzyme-Linked Immunosorbent Assay Kit (HA-ELISA, cat. #K-1200) from Echelon (Salt Lake City, Utah). The HA output was measured by following the generation of a chromophoric reaction product in 96 well plate, with the use of a BioRad microplate reader at 410 nm and the effect of the test materials was determined using the formula: Absorbance 410 (sample)/Absorbance 410 (Zero HA)×100.
Adult HDF (facial, passage 2, Cell Applications, San Diego, Calif. cat.#106-05A lot#1392) were plated in high glucose phosphate-free DMEM supplemented with 5% cosmic serum from Hyclone, Utah) at 6,000 cells per well and test materials were added the following day. Test materials were: hexapeptide (SEQ ID NO:2 (non-palmitylated), lyophilized powder lot #D294, received from DermaCare Neuroscience Institute), type I sterile water (negative control) and basic fibroblast growth factor (bFGF, positive control). Pal-Hexapeptide was dissolved in water at 20 mg/ml. Final concentrations tested were: 2000, 1000, 500 and 250 ug/ml for hexapeptide and 5 ng/ml for bFGF (plate 507). After 96 h, cell culture conditioned media were collected and 100 ul aliquotes were used for the HA assay. HA assay was performed using Hyaluronan Enzyme-Linked Immunosorbent Assay Kit (HA-ELISA, cat. #K-1200) from Echelon (Salt Lake City, Utah). The HA output was measured by following the generation of a chromophoric reaction product in 96 well plate, with the use of a BioRad microplate reader at 410 nm and the effect of the test materials was determined using the formula: Absorbance 410 (sample)/Absorbance 410 (Zero HA)×100.
A general note: In an ELISA, binding on a coated surface is turned into a signal by an enzyme label.

Assay [2] relates to human keloid fibroblasts. As to the kind of experiment: Human keloid fibroblast proliferation kinetic study. The conditions noted are these: for inhibition of proliferation of human keloid fibroblasts: cell counts on days 1-4, Trypan blue exclusion. On the procedure:
Keloid can be characterized as a hyperproliferation/growth of fibrous scar tissue following trauma to the skin. […] Experimental protocols were based on a published study design for keloid fibroblast growth kinetics and is as described in Polo et al., 1999, Ann. Plastic Surg. 43 (2):185-190.
Briefly, fibroblasts were cultured from skin tissue obtained from fresh surgical specimens. The skin specimen was rinsed in 10 ml of calcium- and magnesium-free Dulbecco's phosphate-buffered saline (Sigma Chemical Co, St. Louis, Mo.) supplemented with gentamycin ([…]) for 30 minutes at room temperature. A second antibiotic rinse using 1% 10,000 U per milliliter penicillin G, 25 micrograms per milliliter amphotericin B, 10,000 micrograms per milliliter streptomycin sulfate solution (Gibco BRL, Gran Island, N.Y.) was performed for 10 minutes. The epidermis was separated from the dermis from each piece. The specimen was cut into four pieces of equal dimensions. Each piece was placed dermis-side down into a 60-mm culture dish containing Dispase solution (Collaborative Biomedical Products, Bedford, Mass.). The explants were incubated with no additional culture media for 15 minutes at 37° C. A total of 10 ml Dulbecco's modified Eagle's medium (DMEM; Gibco BRL) was added slowly to the culture dish, which was then incubated at 37° C. at 5% carbon dioxide. The cells were subcultured until 80% confluence was obtained. Trypsin-ethylenediaminetetraacetic acid (Gibco BRL) was added to […] the cells from the surface of the culture plate, and the cells were washed with DMEM and transferred to a centrifuge tube. […] The cells were counted using a hemocytometer, and their cell number was adjusted to 1×10^6 cells, which were then plated on a 35-mm Petri dish with 2 ml DMED and 1% fetal bovine serum, and incubated at 37° C. in 5% carbon dioxide. […]
Samples from each group were removed on days 1, 2, 3 and 4. The cells from each sample were trypsinized, washed, centrifuged, and resuspended in 1 ml DMEM; and were counted using the Trypan blue dye exclusion method and a hemocytometer.

The subject of assay [3] is gamma interferon-induced NO production in epidermal keratinocytes. As to the kind of experiment: Inhibition of gamma interferon-induced nitric oxide production in keratinocytes (Griess reaction). The conditions noted are these: keratinocytes, 48 hours, gamma-interferon 300 U/ml. The text has this:
The study method chosen is similar to that published in the reference Tsai et al. (Tsai et al, Inhibition of inflammatory nitric oxide production and epidermis damages by Saccharomycopsis Ferment Filtrate. J Dermatol Sci 2006 June 42 (3): 249-57. Laskin, Multifunctional Role of Nitric Oxide in Inflammation, Trends Endocrinol Metab 1994; 5:377-382. Lyons, Emerging Roiles of Nitric Oxide in Inflammation, Hospital Practice, Jul. 15, 1996: 69-86.)
The objective of the study was to investigate the inhibition effect of Pal-hexapeptide (SEQ ID NO: 2, in palmitylated form) on gamma interferon-induced NO production in epidermal keratinocytes in culture.
Anti-inflammatory effect was observed as a reduction of nitric oxide production in keratinocytes. Keratinocytes were incubated 48 hours with gamma-interferon (300 U/ml) alone (as control) or with gamma-interferon together with different concentrations (0.1 μM, 1 μM, 10 μM, 100 μM and 1000 μM) of Pal-hexapeptide. Gamma interferon plus aminoguanidine (10 mg/mL) was used as positive control. The amount of NO production was detected by Griess reaction. Nitric oxide readily oxides to nitrite in aqueous medium, and this reaction was measured as nitrite accumulation in the medium. […] The optical density of the wells were read using a Tibertek Mutiskan (MCC microplate reader at a wavelength of 540 nm, subtracting the absorbance at a reference wavelength of 620 nm.) A printout of the absorbance values was generated by the plate reader, and data were entered into an EXCEL spreadsheet for analysis. The average absorbance and standard deviations were expressed as percent of control absorbances.

Peptide text beside a SMILES is read from it. * marks the point of attachment. Palmitoyl = CCCCCCCCCCCCCCCC(=O)*

For `CCCCCCCCCCCCCCCC(=O)N[C@@H](Cc1ccccc1)C(=O)N[C@@H](CO)C(=O)N[C@@H](CCCNC(=N)N)C(=O)N[C@@H](Cc1ccc(O)cc1)C(=O)N[C@@H](C)C(=O)N[C@@H](CCCNC(=N)N)C(=O)O` [Pal 6 mer, Pal-FSRYAR] (Palmitoyl-FSRYAR-OH; C-terminus assumed), the “stimulation of hyaluronic acid in the fibroblast-conditioned medium” value in assay [1] (50 ug/ml) is “about 15%”; in assay [1] (100 ug/ml), “about 15%”; in assay [1] (200 ug/ml), 40%; in assay [1] (400 ug/ml), 40%. For the same compound, the “inhibition of human keloid fibroblast cells, dose response study” value in assay [2] (10^−5 M or 10 micrograms per milliliter) is on record as “highly effective”. Also, the “inhibition of proliferation of human keloid fibroblasts” value in assay [2] (listed as MNTF) was “statistically significant”; in assay [2] (listed as Pal-Hexapeptide), “dose-dependent reduction/inhibition”. The “nitric oxide production induced by Gamma-interferon, % of the control” value in assay [3] (0.1 μM) is reported as 92%; in assay [3] (1 μM), 72%; in assay [3] (10 μM) it was 57%; in assay [3] (100 μM), 24%; in assay [3] (1000 μM), 31%.

(Values after patent US8334253B2, “Cosmetic and dermatological formulations of MNTF peptides” (Dermacare Neuroscience Institute, priority 2008, dated 2012).)
